Test results from BindingDB's records for doi:10.1021/acsmedchemlett.5b00489 (Peking Union Medical College, 2016).

Experiment: Antagonist activity at human recombinant CXCR2 assessed as inhibition of CXCL1-induced neutrophil chemotaxis after 45 mins by calcein-AM dye based plate reader method

SMILES	IC50
CN1CCC2(CCC(S(=O)(=O)c3c(Cl)ccc(NC(=O)Nc4cccc(F)c4Cl)c3O)CC2)CC1	25 nM
C[C@@H]1CN(S(=O)(=O)c2c(Cl)ccc(NC(=O)Nc3cccc(Cl)c3Cl)c2O)C[C@H](C)O1	15800 nM
CCN1CCC(S(=O)(=O)c2c(Cl)ccc(NC(=O)Nc3cccc(F)c3Cl)c2O)CC1	158 nM
CN1CC[C@H](S(=O)(=O)c2c(Cl)ccc(NC(=O)Nc3cccc(F)c3Cl)c2O)C1	79 nM
CN1CC2(CC(S(=O)(=O)c3c(Cl)ccc(NC(=O)Nc4cccc(F)c4Cl)c3O)C2)C1	631 nM
O=C(Nc1ccc(Cl)c(S(=O)(=O)N2CCNCC2)c1O)Nc1cccc(Cl)c1Cl	10000 nM
CCN1CCN(S(=O)(=O)c2c(Cl)ccc(NC(=O)Nc3cccc(F)c3Cl)c2O)CC1	2000 nM
O=C(Nc1ccc(Cl)c(C(=O)N2CCCCC2)c1O)Nc1cccc(F)c1Cl	6.3 nM
O=C(Nc1ccc(Cl)c(S(=O)(=O)C2CCCC2)c1O)Nc1cccc(F)c1Cl	25 nM
CN1CCN(S(=O)(=O)c2c(Cl)ccc(NC(=O)Nc3cccc(Cl)c3Cl)c2O)CC1	1000 nM
O=C(Nc1ccc(Cl)c(S(=O)(=O)C2CCOCC2)c1O)Nc1cccc(Cl)c1Cl	6.3 nM
O=C(Nc1ccc(Cl)c(S(=O)(=O)C2CCOC2)c1O)Nc1cccc(Cl)c1Cl (configuration not stated)	7.9 nM
CN1CCC(S(=O)(=O)c2c(Cl)ccc(NC(=O)Nc3cccc(Cl)c3Cl)c2O)CC1	158 nM
CC(C)(C)S(=O)(=O)c1c(Cl)ccc(NC(=O)Nc2cccc(F)c2Cl)c1O	40 nM
CC(C)N1CCN(S(=O)(=O)c2c(Cl)ccc(NC(=O)Nc3cccc(F)c3Cl)c2O)CC1	2000 nM
NS(=O)(=O)c1c(Cl)ccc(NC(=O)Nc2cccc(Cl)c2Cl)c1O	316 nM
CN1CCC[C@H](S(=O)(=O)c2c(Cl)ccc(NC(=O)Nc3cccc(F)c3Cl)c2O)CC1	100 nM
CC(C)S(=O)(=O)c1c(Cl)ccc(NC(=O)Nc2cccc(Cl)c2Cl)c1O	158 nM
CN1CC[C@H](S(=O)(=O)c2c(Cl)ccc(NC(=O)Nc3cccc(Cl)c3Cl)c2O)C1	251 nM
CC(C)S(=O)(=O)c1c(Cl)ccc(NC(=O)Nc2cccc(F)c2Cl)c1O	10 nM
O=C(Nc1ccc(Cl)c(S(=O)(=O)C2CCC2)c1O)Nc1cccc(F)c1Cl	13 nM
C[C@@H]1CN(S(=O)(=O)c2c(Cl)ccc(NC(=O)Nc3cccc(F)c3Cl)c2O)C[C@H](C)O1	3160 nM
CN1CCC(S(=O)(=O)c2c(Cl)ccc(NC(=O)Nc3cccc(F)c3Cl)c2O)CC1	25 nM
CCS(=O)(=O)c1c(Cl)ccc(NC(=O)Nc2cccc(Cl)c2Cl)c1O	6310 nM
O=C(Nc1ccc(Cl)c(S(=O)(=O)C2CCCCC2)c1O)Nc1cccc(F)c1Cl	79 nM
O=C(Nc1ccc(Cl)c(C(=O)N2CCCC2)c1O)Nc1cccc(F)c1Cl	7.9 nM
CN1CCN(S(=O)(=O)c2c(Cl)ccc(NC(=O)Nc3cccc(F)c3Cl)c2O)CC1	316 nM
